# Results from patent US10183938B2, “Geminal substituted quinuclidine amide compounds as agonists of α-7 nicotonic acetylcholine receptors” (AXOVANT SCIENCES GMBH, priority 2014, dated 2019).
# Structures can show the parent of a compound that is named as a salt.
# Target: human 5-HT3 serotonin receptors (Homo sapiens (Human), UniProt P46098)
# Assay: [3H]BRL 43694 competition binding
# Settings: CHO cell membranes, [3H]BRL 43694, Cheng Prusoff; read-out: h-5HT3 Ki
# Chain of human 5-HT3 serotonin receptors (P46098 24-478): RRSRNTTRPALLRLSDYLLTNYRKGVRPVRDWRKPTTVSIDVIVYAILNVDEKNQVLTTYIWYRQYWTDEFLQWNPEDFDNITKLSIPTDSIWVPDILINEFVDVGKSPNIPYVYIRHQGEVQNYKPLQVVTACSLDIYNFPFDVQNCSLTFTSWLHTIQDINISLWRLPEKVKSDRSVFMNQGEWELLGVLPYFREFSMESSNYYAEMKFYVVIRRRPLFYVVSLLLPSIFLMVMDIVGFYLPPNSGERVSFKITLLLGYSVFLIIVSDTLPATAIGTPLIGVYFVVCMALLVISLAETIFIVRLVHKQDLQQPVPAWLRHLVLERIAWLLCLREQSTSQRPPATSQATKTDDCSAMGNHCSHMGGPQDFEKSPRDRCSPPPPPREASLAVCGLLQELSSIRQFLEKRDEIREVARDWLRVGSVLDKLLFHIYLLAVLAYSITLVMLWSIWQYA
row,SMILES,Ki
1,"Cc1ccc2cc(C(=O)N[C@@H]3C4CCN(CC4)C3(C)C)sc2c1C(F)(F)F [(R)-113, (R)—N-(2,2-dimethylquinuclidin-3-yl)-6-methyl-7-(trifluoromethyl)benzo[b]thiophene-2-carboxamide hydrochloride]",> 10000 nM
2,"COCc1cccc2cc(C(=O)N[C@@H]3C4CCN(CC4)C3(C)C)sc12 [(R)-143, (R)—N-(2,2-dimethylquinuclidin-3-yl)-7-(methoxymethyl)benzo[b]thiophene-2-carboxamide hydrochloride]",740 nM
3,"O=C(N[C@@H]1C2CCN(CC2)C12CC2)c1cc2ccccc2[nH]1 [(R)-170, (R)—N-(1′-azaspiro[cyclopropane-1,2′-bicyclo[2.2.2]octan]-3′-yl)-1H-indole-2-carboxamide hydrochloride]",800 nM
4,"O=C(N[C@@H]1C2CCN(CC2)C12CC2)c1ccc2cc(Cl)sc2c1 [(R)-203, (R)-2-chloro-N-(1′-azaspiro[cyclopropane-1,2′-bicyclo[2.2.2]octan]-3′-yl)benzo[b]thiophene-6-carboxamide hydrochloride]",2300 nM
5,"O=C(N[C@@H]1C2CCN(CC2)C12CC2)c1cc2cccc(C3CC3)c2s1 [(R)-165, (R)-7-cyclopropyl-N-(1′-azaspiro[cyclopropane-1,2′-bicyclo[2.2.2]octan]-3′-yl)benzo[b]thiophene-2-carboxamide hydrochloride]",200 nM
6,"CC(C)(C)c1cccc2cc(C(=O)N[C@@H]3C4CCN(CC4)C34CC4)sc12 [(R)-184, (R)-7-(tert-butyl)-N-(1′-azaspiro[cyclopropane-1,2′-bicyclo[2.2.2]octan]-3′-yl)benzo[b]thiophene-2-carboxamide hydrochloride]",110 nM
7,"CC(C)c1cccc2cc(C(=O)N[C@@H]3C4CCN(CC4)C34CC4)sc12 [(R)-166, (R)-7-isopropyl-N-(1′-azaspiro[cyclopropane-1,2′-bicyclo[2.2.2]octan]-3′-yl)benzo[b]thiophene-2-carboxamide hydrochloride]",325 nM
8,"O=C(N[C@@H]1C2CCN(CC2)C12CC2)c1cc2ccc(Cl)c(C(F)(F)F)c2s1 [(R)-152, (R)-6-chloro-N-(1′-azaspiro[cyclopropane-1,2′-bicyclo[2.2.2]octan]-3′-yl)-7-(trifluoromethyl)benzo[b]thiophene-2-carboxamide hydrochloride]",> 10000 nM
9,"CC1(C)[C@H](NC(=O)c2cc3cccc(CC(F)(F)F)c3s2)C2CCN1CC2 [(R)-127, (R)—N-(2,2-dimethylquinuclidin-3-yl)-7-(2,2,2-trifluoroethyl)benzo[b]thiophene-2-carboxamide hydrochloride]",1100 nM
10,"O=C(N[C@@H]1C2CCN(CC2)C12CC2)c1cc2ccc3c(c2s1)CCCO3 [(R)-204, (R)—N-(1′-azaspiro[cyclopropane-1,2′-bicyclo[2.2.2]octan]-3′-yl)-8,9-dihydro-7H-thieno[2,3-f]chromene-2-carboxamide hydrochloride]",> 10000 nM

# Target: human α7 nAChRs transiently expressed in Xenopus laevis oocytes (Homo sapiens (Human), UniProt P36544)
# Assay: Oocyte electrophysiology screen (TEVC)
# Assay type: cell-based
# Settings: 0.01 mM test compound, peak current relative to 0.2 mM ACh
# Procedure, shortened: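 Oocytes expressing human α7 were clamped at −80 mV by TEVC. After a 0.2 mM ACh control pulse, test compound was applied at 0.01 mM for 30 s. Agonist response is peak current as % of the ACh response, in triplicate.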
# Chain of human α7 nAChRs transiently expressed in Xenopus laevis oocytes (P36544 23-502 limits assumed): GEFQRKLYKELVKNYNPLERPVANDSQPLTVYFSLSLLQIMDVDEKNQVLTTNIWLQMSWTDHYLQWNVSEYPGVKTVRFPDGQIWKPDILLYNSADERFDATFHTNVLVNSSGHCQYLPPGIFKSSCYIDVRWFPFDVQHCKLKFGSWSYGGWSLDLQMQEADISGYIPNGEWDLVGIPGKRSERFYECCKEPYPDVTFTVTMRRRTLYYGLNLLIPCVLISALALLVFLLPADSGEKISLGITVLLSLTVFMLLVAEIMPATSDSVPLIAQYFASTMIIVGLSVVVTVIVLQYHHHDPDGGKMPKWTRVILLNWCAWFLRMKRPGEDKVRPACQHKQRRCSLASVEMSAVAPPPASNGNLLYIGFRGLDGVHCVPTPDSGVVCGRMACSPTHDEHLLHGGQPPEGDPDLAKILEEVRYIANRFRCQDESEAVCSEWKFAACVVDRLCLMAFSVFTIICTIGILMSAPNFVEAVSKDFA
row,SMILES,% ACh @ 10 μM Oocyte
1,"CC1(C)[C@@H](NC(=O)c2cc3cccnc3s2)C2CCN1CC2 [(S)-28, (S)—N-(2,2-dimethylquinuclidin-3-yl)thieno[2,3-b]pyridine-2-carboxamide hydrochloride]",1 % ACh
2,"Cl.O=C(N[C@@H]1C2CCN(CC2)C12CC2)c1cc2c(cn1)OCCO2 [(R)-76, (R)—N-(1′-azaspiro[cyclopropane-1,2′-bicyclo[2.2.2]octan]-3′-yl)-2,3-dihydro-[1,4]dioxino[2,3-c]pyridine-7-carboxamide hydrochloride]",129 % ACh

# Same assay, conditions: 0.01 mM test compound, peak current relative to 0.2 mM ACh; hydrochloride
row,SMILES,% ACh @ 10 μM Oocyte
1,"COc1ccc2cc(C(=O)NC3C4CCN(CC4)C34CC4)sc2c1 (single isomer, unassigned; enantiomer2) [73b, 6-methoxy-N-(1′-azaspiro[cyclopropane-1,2′-bicyclo[2.2.2]octan]-3′-yl)benzo[b]thiophene-2-carboxamide-enantiomer2 hydrochloride]",1 % ACh
